Measurements as given in US10131664B2 (Celgene Quanticel Research, Inc., priority 2013, dated 2018).
Counter-ions that a name gives are not always drawn. Like-named read-outs stand apart in the source and are kept apart here.

Key:
full-length human LSD1 = full-length human LSD1 (Homo sapiens (Human), UniProt O60341); assay: In vitro enzyme inhibition assay LSD-1 (TR-FRET); assay type: biochemical
Protocol: This assay determines the ability of a test compound to inhibit LSD1 demethylase activity.
The enzymatic assay of LSD1 activity is based on Time Resolved-Fluorescence Resonance Energy Transfer (TR-FRET) detection.
The ability of the compounds disclosed herein to inhibit LSD1 activity was quantified and the respective IC50 value was determined. Table 5 provides the IC50 values of various substituted heterocyclic compounds disclosed herein.

THP-1 (AML) cells = assay: LSD1 CD11b cellular assay (flow cytometry); assay type: cell-based; conditions: Homo sapiens, 96 h; CD11b expression in THP-1 (AML) cells, flow cytometry, 4 days incubation; read-out: Cellular IC50
Protocol: To analyze LSD1 inhibitor efficacy in cells, a CD11b flow cytometry assay was performed. LSD1 inhibition induces CD11b expression in THP-1 (AML) cells which can be measured by flow cytometry. […] LSD1 test compounds were serially diluted in DMSO. The dilutions were added to each well accordingly to a final concentration of 0.2% DMSO. The cells were incubated at 37° C. in 5% CO2 for 4 days. 250 μL of each well was transferred to a well in a 96 well round bottom plate. The plate was centrifuged at 1200 rpm at 4 degrees Celsius in a Beckman Coulter Alegra 6KR centrifuge for 5 min. The media was removed leaving the cells at the bottom of the wells. The cells were washed in 100 μL cold HBSS (Hank's Balanced Salt Solution) plus 2% BSA (Bovine Serum Albumin) solution and centrifuged at 1200 rpm at 4° C. for 5 min. The wash was removed. […] The cells were centrifuged and washed two times in 100 μl HBSS plus 2% BSA. After the final spin the cells were resuspended in 100 μL HBSS plus 2% BSA containing 1 μg/mL DAPI (4′,6-diamidino-2-phenylindole). The cells were then analyzed by flow cytometry in a BD FACSAria machine. Cells were analyzed for CD11b expression. The percent of CD11b expressing cells for each inhibitor concentration was used to determine an IC50 curve for each compound analyzed.

[1] = TR-FRET, 0.1 nM LSD1, 50 nM H3K4me1-biotin peptide, 2 μM FAD, pH7.3, read-out: LSD1 IC50

IC50 (full-length human LSD1; [1]) | IC50 (THP-1 (AML) cells) | Compound | IC50 (full-length human LSD1)
100 to 1000 nM | – | N#Cc1ccc(-c2nc(NCC3CNCCO3)ncc2-c2ccc(F)cc2)cc1 (racemic) [Example 34, (±)-4-[5-(4-fluorophenyl)-2-[(morpholin-2-ylmethyl)amino]pyrimidin-4-yl]benzonitrile] | –
– | 100 to 1000 nM | Cc1ccc(-c2cnc(NCC3(F)CCNC3)nc2-c2ccc(C#N)cc2)cc1 (single isomer, unassigned; (+)) [Example 28, (+)-4-(2-{[(3-fluoropyrrolidin-3-yl)methyl]amino}-5-(4-methylphenyl)pyrimidin-4-yl)benzonitrile] | –
– | 100 to 1000 nM | Cc1ccc(-c2cnc(NC3CCCNC3)nc2-c2ccc(C#N)cc2)cc1 (single isomer, unassigned; (+)) [Example 29, (+)-4-[5-(4-methylphenyl)-2-[(piperidin-3-yl)amino]pyrimidin-4-yl]benzonitrile] | –
< 100 nM | < 100 nM | COc1ccc(-c2nc3ccn(CC4CCNC4)c3cc2-c2ccc(C#N)c(F)c2)cc1F (stereo in doubt) [Example 55, 4-{1-[((3R)pyrrolidin-3-yl)methyl]-5-(3-fluoro-4-methoxyphenyl)pyrrolo[3,2-b]pyridin-6-yl}-2-fluorobenzenecarbonitrile, HCl salt] | –
< 100 nM | < 100 nM | Cc1ccc(-c2nc3ccn(C[C@@H]4CCNC4)c3cc2-c2ccc(C#N)cc2)cc1 [Example 1, 4-[5-(4-methylphenyl)-1-[[(3R)-pyrrolidin-3-yl]methyl]pyrrolo[3,2-b]pyridin-6-yl]benzonitrile] | –
– | 1000 to 10000 nM | N#Cc1ccc(-c2cc3c(ccn3C[C@@H]3CCNC3)nc2Cl)cc1 [Example 2] | –
< 100 nM | < 100 nM | Cc1ccc(-c2nc3ccn(C[C@H]4CCNC4)c3cc2-c2ccc(C#N)cc2)cc1 [Example 3, 4-[5-(4-methylphenyl)-1-[[(3S)-pyrrolidin-3-yl]methyl]pyrrolo[3,2-b]pyridin-6-yl]benzonitrile] | –
100 to 1000 nM | 1000 to 10000 nM | N#Cc1ccc(-c2cc3c(ccn3C[C@H]3CCNC3)nc2Cl)cc1 [Example 4, 4-[5-chloro-1-[[(3S)-pyrrolidin-3-yl]methyl]pyrrolo[3,2-b]pyridin-6-yl]benzonitrile] | –
< 100 nM | 1000 to 10000 nM | N#Cc1ccc(-c2cc3c(ccn3C[C@H]3CCNC3)nc2-c2ccc(F)cc2)cc1 [Example 5, 4-[5-(4-fluorophenyl)-1-[[(3S)-pyrrolidin-3-yl]methyl]pyrrolo[3,2-b]pyridin-6-yl]benzonitrile] | –
100 to 1000 nM | 1000 to 10000 nM | N#Cc1ccc(-c2cc3c(ccn3C[C@@H]3CCNC3)nc2N2CCOCC2)cc1 [Example 6, 4-[5-morpholin-4-yl-1-[[(3R)-pyrrolidin-3-yl]methyl]pyrrolo[3,2-b]pyridin-6-yl]benzonitrile] | –
< 100 nM | 100 to 1000 nM | N#Cc1ccc(-c2cc3c(ccn3C[C@H]3CCNC3)nc2N2CCOCC2)cc1 [Example 7, 4-[5-morpholin-4-yl-1-[[(3S)-pyrrolidin-3-yl]methyl]pyrrolo[3,2-b]pyridin-6-yl]benzonitrile] | –
100 to 1000 nM | – | N#Cc1ccc(-c2cc3c(ccn3CC3(F)CCNC3)nc2N2CCOCC2)cc1 (centres unmarked) [Example 8, 4-[1-[(3-fluoropyrrolidin-3-yl)methyl]-5-morpholin-4-ylpyrrolo[3,2-b]pyridin-6-yl]benzonitrile] | –
100 to 1000 nM | – | N#Cc1ccc(-c2nc(NC[C@H]3CCNC3)ncc2Cl)cc1 [Example 17, 4-(5-chloro-2-{[(3S)-pyrrolidin-3-ylmethyl]amino}pyrimidin-4-yl)benzonitrile] | –
< 100 nM | – | N#Cc1ccc(-c2nc(N3CC[C@@H]4CNC[C@@H]4CC3)ncc2-c2ccc(F)cc2)cc1 [Example 24, 4-{2-[(3aR,8aS)-decahydropyrrolo[3,4-d]azepin-6-yl]-5-(4-fluorophenyl)pyrimidin-4-yl}benzonitrile] | –
< 100 nM | – | Cc1ccc(-c2cnc(NC3CCNCC3)nc2-c2ccc(C#N)cc2)cc1 [Example 30, 4-[5-(4-methylphenyl)-2-[(piperidin-4-yl)amino]pyrimidin-4-yl]benzonitrile] | –
< 100 nM | – | Cc1ccc(-c2cnc(NCC3CCNCC3)nc2-c2ccc(C#N)cc2)cc1 [Example 32, 4-[5-(4-methylphenyl)-2-[(piperidin-4-ylmethyl)amino]pyrimidin-4-yl]benzonitrile] | –

IC50 (full-length human LSD1; [1]) | IC50 (THP-1 (AML) cells) | Compound | IC50 (full-length human LSD1)
< 100 nM | – | Cc1ccc(-c2cnc(N3CCC4(CCNC4)C3)nc2-c2ccc(C#N)cc2)cc1 (centres unmarked) [Example 35, 4-(2-{2,7-diazaspiro[4.4]nonan-2-yl}-5-(4-methylphenyl)pyrimidin-4-yl)benzonitrile] | –
< 100 nM | – | Cc1ccc(-c2cnc(N3CCC4(CCNCC4)C3)nc2-c2ccc(C#N)cc2)cc1 [Example 36, 4-(2-{2,8-diazaspiro[4.5]decan-2-yl}-5-(4-methylphenyl)pyrimidin-4-yl)benzonitrile] | –
< 100 nM | – | Cc1ccc(-c2cnc(N3CCC4(CCNC4)CC3)nc2-c2ccc(C#N)cc2)cc1 [Example 39, 4-(2-{2,8-diazaspiro[4.5]decan-8-yl}-5-(4-methylphenyl)pyrimidin-4-yl)benzonitrile] | –
< 100 nM | – | Cc1ccc(-c2cnc(N3CCC4(CCCN4)CC3)nc2-c2ccc(C#N)cc2)cc1 [Example 40, 4-(2-{1,8-diazaspiro[4.5]decan-8-yl}-5-(4-methylphenyl)pyrimidin-4-yl)benzonitrile] | –
100 to 1000 nM | – | Cc1ccc(-c2cnc(N3CC4CNCC(C3)O4)nc2-c2ccc(C#N)cc2)cc1 [Example 41, 4-[5-(4-methylphenyl)-2-{9-oxa-3,7-diazabicyclo[3.3.1]nonan-3-yl}pyrimidin-4-yl]benzonitrile] | –
100 to 1000 nM | – | N#Cc1ccc(-c2nc(N3CC4CNCC(C3)O4)ncc2-c2ccc(F)cc2)cc1 [Example 42, 4-[5-(4-fluorophenyl)-2-{9-oxa-3,7-diazabicyclo[3.3.1]nonan-3-yl}pyrimidin-4-yl]benzonitrile] | –
< 100 nM | – | COc1ncc(-c2cnc(N3CCC(N)CC3)nc2-c2ccc(C#N)cc2)cn1 [Example 74, 4-[2-(4-aminopiperidin-1-yl)-5-(2-methoxypyrimidin-5-yl)pyrimidin-4-yl]benzonitrile] | –
< 100 nM | – | Cc1nc2cc(-c3cnc(N4CCC(N)CC4)nc3-c3ccc(C#N)cc3)ccc2n1C [Example 75, 4-[2-(4-aminopiperidin-1-yl)-5-(1,2-dimethylbenzimidazol-5-yl)pyrimidin-4-yl]benzonitrile] | –
100 to 1000 nM | – | N#Cc1ccc(-c2nc(N3CCC(N)CC3)ncc2-c2ccn3ncnc3c2)cc1 [Example 81, 4-[2-(4-aminopiperidin-1-yl)-5-([1,2,4]triazdo[1,5-a]pyridin-7-yl)pyrimidin-4-yl]benzonitrile] | –
100 to 1000 nM | – | Cn1cc2nc(-c3cnc(N4CCC(N)CC4)nc3-c3ccc(C#N)cc3)ncc2n1 [Example 86] | –
100 to 1000 nM | – | Cn1ncc2nc(-c3cnc(N4CCC(N)CC4)nc3-c3ccc(C#N)cc3)ncc21 [Example 88, 4-[2-(4-aminopiperidin-1-yl)-5-(1-methylpyrazolo[4,3-d]pyrimidin-5-yl)pyrimidin-4-yl]benzonitrile] | –
< 100 nM | – | Cc1ncc(-c2cnc(N3CCC(N)CC3)nc2-c2ccc(C#N)cc2)cn1 [Example 90, 4-[2-(4-aminopiperidin-1-yl)-5-(2-methylpyrimidin-5-yl)pyrimidin-4-yl]benzonitrile] | –
< 100 nM | – | Cc1nn(C)cc1-c1cnc(N2CCC3CNCC3CC2)nc1-c1ccc(C#N)cc1 (centres unmarked) [Example 118, 4-[2-(2,3,3a,4,5,7,8,8a-octahydro-1H-pyrrolo[3,4-d]azepin-6-yl)-5-(1,3-dimethylpyrazol-4-yl)pyrimidin-4-yl]benzonitrile] | –
< 100 nM | – | N#Cc1ccc(-c2nc(N3CCC4(CCNC4)CC3)ncc2-c2cnn(CC(F)(F)F)c2)cc1 [Example 121, 4-[2-(2,8-diazaspiro[4.5]decan-8-yl)-5-[1-(2,2,2-trifluoroethyl)pyrazol-4-yl]pyrimidin-4-yl]benzonitrile] | –
100 to 1000 nM | – | N#Cc1ccc(-c2nc(N3CCC(N)CC3)ncc2-c2ccc3ncnn3c2)cc1 [Example 127, 4-[2-(4-aminopiperidin-1-yl)-5-([1,2,4]triazolo[1,5-a]pyridin-6-yl)pyrimidin-4-yl]benzonitrile] | –

Compound | IC50 (full-length human LSD1; [1]) | IC50 (THP-1 (AML) cells) | IC50 (full-length human LSD1)
Cc1ccc(-c2nc3ccn(CC4(F)CCNC4)c3cc2-c2ccc(C#N)cc2)cc1 (centres unmarked) [Example 9, 4-[1-[(3-fluoropyrrolidin-3-yl)methyl]-5-(4-methylphenyl)pyrrolo[3,2-b]pyridin-6-yl]benzonitrile] | – | 100 to 1000 nM | < 100 nM
Cc1ccc(-c2nc3cnn(C4CCNCC4)c3cc2-c2ccc(C#N)cc2)cc1 [Example 48, 4-[5-(4-methylphenyl)-1-piperidin-4-ylpyrazolo[4,3-b]pyridin-6-yl]benzonitrile] | – | > 10000 nM | –
